Among the data in patent US10590113B2, “6-hydroxy-4-oxo-1,4-dihydropyrimidine-5-carboxamides as APJ agonists” (priority 2016, dated 2020) are EC50 values, retold here.

One experiment deals with T1, human APJ receptor (Homo sapiens, UniProt P35414).
T1 construct: expressed in transfected cells; host or cells: HEK293
T1 sequence (P35414 1-380): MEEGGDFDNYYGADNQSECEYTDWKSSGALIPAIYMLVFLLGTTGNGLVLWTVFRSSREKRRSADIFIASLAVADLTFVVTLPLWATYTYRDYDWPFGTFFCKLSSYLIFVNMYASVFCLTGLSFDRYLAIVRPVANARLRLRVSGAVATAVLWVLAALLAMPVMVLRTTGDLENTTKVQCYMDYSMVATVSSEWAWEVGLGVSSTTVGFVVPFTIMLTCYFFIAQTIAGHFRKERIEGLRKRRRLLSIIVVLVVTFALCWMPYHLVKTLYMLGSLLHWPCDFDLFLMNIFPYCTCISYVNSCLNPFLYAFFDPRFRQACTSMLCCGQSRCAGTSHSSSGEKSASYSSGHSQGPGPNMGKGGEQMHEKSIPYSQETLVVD
As to the kind of experiment: Intracellular cAMP Accumulation Assay (APJ hcAMP, HTRF). Type of experiment: cell-based. The following applies: human APJ, cAMP accumulation; potency range class; read-out: hAPJ cAMP EC50 Potency range. The gist of the method: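 Stably transfected HEK293 cells (5,000/well) incubated 30 min at room temperature with serially diluted compound, […] and 2 μM forskolin. cAMP measured by HTRF after 60 min with detection reagents, quantified against a cAMP standard curve; EC50 from variable-slope sigmoidal fit of inhibition of forskolin-stimulated cAMP.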
On the technique in general: Time-resolved FRET reads energy transfer from a long-lived donor to a nearby acceptor.
In general, EC50 refers to the concentration that produces a half-maximal response. As to `CCc1cccc(CC)c1-n1c(COC(C)C)nc(O)c(C(=O)N2CCC(c3ccc(Cl)nc3)CC2)c1=O` [Example 222, 5-[4-(6-chloropyridin-3-yl)piperidine-1-carbonyl]-3-(2,6-diethylphenyl)-6-hydroxy-2-[(propan-2-yloxy)methyl]-3,4-dihydropyrimidin-4-one], the EC50 is 100 to 300 nM.
Still for that read-out and setting: the same measure for `COc1cccc(OC)c1-n1c(CC2CC2)nc(=O)c(C(=O)N2CCC(c3ccc(Cl)nc3)CC2)c1O` [Example 227, 5-[4-(6-chloropyridin-3-yl)piperidine-1-carbonyl]-2-(cyclopropylmethyl)-1-(2,6-dimethoxyphenyl)-6-hydroxy-1,4-dihydropyrimidin-4-one]: 10 to 100 nM; for `COc1cccc(OC)c1-n1c(-c2csc(C)n2)nc(=O)c(C(=O)N2CCC(Oc3cccc(F)c3F)CC2)c1O` [Example 277, 5-[4-(2,3-difluorophenoxy)piperidine-1-carbonyl]-1-(2,6-dimethoxyphenyl)-6-hydroxy-2-(2-methyl-1,3-thiazol-4-yl)-1,4-dihydropyrimidin-4-one]: 0.01 to 10 nM; for `CCc1cccc(CC)c1-n1c(-c2ccn(C)n2)nc(=O)c(C(=O)N2CC[C@H](c3ccccc3)C2)c1O` [Example 283, 1-(2,6-diethylphenyl)-6-hydroxy-2-(1-methyl-1H-pyrazol-3-yl)-5-[(3R)-3-phenylpyrrolidine-1-carbonyl]-1,4-dihydropyrimidin-4-one]: 0.01 to 10 nM.
Same read-out and setting: next, `CCn1ccc(-c2nc(=O)c(C(=O)N3CC[C@H](c4ccccc4)C3)c(O)n2-c2c(OC)cccc2OC)n1` [Example 284, 1-(2,6-dimethoxyphenyl)-2-(1-ethyl-1H-pyrazol-3-yl)-6-hydroxy-5-[(3R)-3-phenylpyrrolidine-1-carbonyl]-1,4-dihydropyrimidin-4-one]: 0.01 to 10 nM; `CCc1cccc(CC)c1-n1c(-c2ccn(C)n2)nc(=O)c(C(=O)N2CC[C@@H](c3ccccc3)C2)c1O` [Example 285, 1-(2,6-diethylphenyl)-6-hydroxy-2-(1-methyl-1H-pyrazol-3-yl)-5-[(3S)-3-phenylpyrrolidine-1-carbonyl]-1,4-dihydropyrimidin-4-one]: 0.01 to 10 nM; `CCn1ccc(-c2nc(=O)c(C(=O)N3CC[C@@H](c4ccccc4)C3)c(O)n2-c2c(OC)cccc2OC)n1` [Example 286, 1-(2,6-dimethoxyphenyl)-2-(1-ethyl-1H-pyrazol-3-yl)-6-hydroxy-5-[(3S)-3-phenylpyrrolidine-1-carbonyl]-1,4-dihydropyrimidin-4-one]: 0.01 to 10 nM.
With `CCn1ccc(-c2nc(=O)c(C(=O)N3CC[C@@H](c4ccccc4)C3)c(O)n2-c2cccc(C(C)C)c2)n1` [Example 288, 2-(1-ethyl-1H-pyrazol-3-yl)-6-hydroxy-5-[(3S)-3-phenylpyrrolidine-1-carbonyl]-1-[3-(propan-2-yl)phenyl]-1,4-dihydropyrimidin-4-one], the concentration for a half-maximal effect (EC50) was in the range of 0.01 to 10 nM.
Same read-out and setting: next, `CCc1cccc(CC)c1-n1c(-c2ccn(C(C)C)n2)nc(=O)c(C(=O)N2CC[C@@H](c3ccccc3)C2)c1O` [Example 289, 1-(2,6-diethylphenyl)-6-hydroxy-5-[(3S)-3-phenylpyrrolidine-1-carbonyl]-2-[1-(propan-2-yl)-1H-pyrazol-3-yl]-1,4-dihydropyrimidin-4-one]: 0.01 to 10 nM.
In the case of `CCn1ccc(-c2nc(=O)c(C(=O)N3CC[C@H](c4ccccc4)C3)c(O)n2-c2cccc(C(C)C)c2)n1` [Example 291, 2-(1-ethyl-1H-pyrazol-3-yl)-6-hydroxy-5-[(3R)-3-phenylpyrrolidine-1-carbonyl]-1-[3-(propan-2-yl)phenyl]-1,4-dihydropyrimidin-4-one], the EC50 lay within 0.01 to 10 nM.
As to `CCc1cccc(CC)c1-n1c(-c2csc(C(C)C)n2)nc(=O)c(C(=O)N2CC[C@@H](c3ccccc3)C2)c1O` [Example 299, 1-(2,6-diethylphenyl)-6-hydroxy-5-[(3S)-3-phenylpyrrolidine-1-carbonyl]-2-[2-(propan-2-yl)-1,3-thiazol-4-yl]-1,4-dihydropyrimidin-4-one], the EC50 is 0.01 to 10 nM.
Same read-out and setting: next, `CCc1cccc(CC)c1-n1c(-c2csc(C)n2)nc(=O)c(C(=O)N2CC[C@H](c3ccccc3)C2)c1O` [Example 301, 1-(2,6-diethylphenyl)-6-hydroxy-2-(2-methyl-1,3-thiazol-4-yl)-5-[(3R)-3-phenylpyrrolidine-1-carbonyl]-1,4-dihydropyrimidin-4-one]: 0.01 to 10 nM; `CCc1cccc(CC)c1-n1c(-c2csc(C)n2)nc(=O)c(C(=O)N2CC[C@@H](c3ccccc3)C2)c1O` [Example 303, 1-(2,6-diethylphenyl)-6-hydroxy-2-(2-methyl-1,3-thiazol-4-yl)-5-[(3S)-3-phenylpyrrolidine-1-carbonyl]-1,4-dihydropyrimidin-4-one]: 0.01 to 10 nM.

The experiment is the same for the next values; noted with them: human APJ, intracellular cAMP accumulation; read-out: hAPJ cAMP EC50 Potency range.
With `CCCCc1nc(=O)c(C(=O)N2CC[C@H](c3ccccc3)C2)c(O)n1C(C)c1ccncc1` (stereo partly drawn) [Example 148, 2-butyl-6-hydroxy-5-[(3R)-3-phenylpyrrolidine-1-carbonyl]-3-[1-(pyridin-4-yl)ethyl]3,4-dihydropyrimidin-4-one], the concentration for a half-maximal effect (EC50) was 10 to 100 nM.
Same read-out and setting: next, `CCCCc1nc(=O)c(C(=O)N2CC[C@@H](c3ccccc3)C2)c(O)n1[C@@H](C)c1cccc(C#N)c1` [Example 149, 3-[(1S)-1-{2-butyl-4-hydroxy-6-oxo-5-[(3S)-3-phenylpyrrolidine-1-carbonyl]-1,6-dihydropyrimidin-1-yl}ethyl]benzonitrile]: 10 to 100 nM; `CCCCc1nc(=O)c(C(=O)N2CC[C@H](c3ccccc3)C2)c(O)n1C(C)C` [Example 150, 2-butyl-6-hydroxy-5-[(3R)-3-phenylpyrrolidine-1-carbonyl]-3-(propan-2-yl)-3,4-dihydropyrimidin-4-one]: 10 to 100 nM.
With `CCCCc1nc(=O)c(C(=O)N2CC[C@@H](c3ccccc3)C2)c(O)n1[C@@H](C)c1ccccc1OC` [Example 151, 2-butyl-6-hydroxy-3-[(1S)-1-(2-methoxypheny)ethyl]-5-[(3S)-3-phenylpyrrolidine-1-carbonyl]-3,4-dihydropyrimidin-4-one], the half-maximal effective concentration (EC50) is 10 to 100 nM.
The same measure, in the same setting: next, `CCCCc1nc(=O)c(C(=O)N2CC[C@H](c3ccccc3)C2)c(O)n1[C@H](COC)c1ccccc1` [Example 152, 2-butyl-6-hydroxy-3-[(1S)-2-methoxy-1-phenylethyl]-5-[(3R)-3-phenylpyrrolidine-1-carbonyl]-3,4-dihydropyrimidin-4-one]: 10 to 100 nM; `CCCCc1nc(=O)c(C(=O)N2CC[C@@H](c3ccccc3)C2)c(O)n1[C@@H](CCC)c1ccccc1` [Example 153, 2-butyl-6-hydroxy-3-[(1S)-1-phenylbutyl]-5-[(3S)-3-phenylpyrrolidine-1-carbonyl]-3,4-dihydropyrimidin-4-one]: 10 to 100 nM.
The same measure, in the same setting: next, `CCCCc1nc(=O)c(C(=O)N2CC[C@@H](c3ccccc3)C2)c(O)n1[C@H](COC)c1ccccc1` [Example 154, 2-butyl-6-hydroxy-3-[(1S)-2-methoxy-1-phenylethyl]-5-[(3S)-3-phenylpyrrolidine-1-carbonyl]-3,4-dihydropyrimidin-4-one]: 10 to 100 nM; `CCCCc1nc(=O)c(C(=O)N2CC[C@@H](c3ccccc3)C2)c(O)n1[C@H](C)C1CC1` [Example 155, 2-butyl-3-[(1R)-1-cyclopropylethyl]-6-hydroxy-5-[(3S)-3-phenylpyrrolidine-1-carbonyl]-3,4-dihydropyrimidin-4-one]: 100 to 300 nM; `CCCCc1nc(=O)c(C(=O)N2CC[C@H](c3ccccc3)C2)c(O)n1[C@@H](C)c1ccccc1OC` [Example 156, 2-butyl-6-hydroxy-3-[(1S)-1-(2-methoxyphenyl)ethyl]-5-[(3R)-3-phenylpyrrolidine-1-carbonyl]-3,4-dihydropyrimidin-4-one]: 100 to 300 nM.
For `CCCCc1nc(=O)c(C(=O)N2CC[C@H](c3ccccc3)C2)c(O)n1[C@@H](C)c1ccc(F)cc1` [Example 157, 2-butyl-3-[(1S)-1-(4-fluorophenyl)ethyl]-6-hydroxy-5-[(3R)-3-phenylpyrrolidine-1-carbonyl]-3,4-dihydropyrimidin-4-one], the EC50 is 100 to 300 nM.
As to `CCCCc1nc(=O)c(C(=O)N2CC[C@@H](c3ccccc3)C2)c(O)n1C(C)C` [Example 159, 2-butyl-6-hydroxy-5-[(3S)-3-phenylpyrrolidine-1-carbonyl]-3-(propan-2-yl)-3,4-dihydropyrimidin-4-one], the EC50 was in the range of 100 to 300 nM.
For `COc1cccc(OC)c1-n1c(CCC2CC2)nc(=O)c(C(=O)N2CC=C(c3ccc(Cl)cn3)C2)c1O` [Example 172, 5-[3-(5-chloropyridin-2-yl)-2,5-dihydro-1H-pyrrole-1-carbonyl]-2-(2-cyclopropylethyl)-1-(2,6-dimethoxyphenyl)-6-hydroxy-1,4-dihydropyrimidin-4-one], the EC50 was in the range of 0.01 to 10 nM.
On the same count and under the same terms, next, `COc1cccc(OC)c1-n1c(CCC2CC2)nc(=O)c(C(=O)N2CCN(Cc3cccc(F)c3F)CC2)c1O` [Example 173, 2-(2-cyclopropylethyl)-5-{4-[(2,3-difluorophenyl)methyl]piperazine-1-carbonyl}-1-(2,6-dimethoxyphenyl)-6-hydroxy-1,4-dihydropyrimidin-4-one]: 0.01 to 10 nM.
